For the experiment, the target named is T1, human recombinant mGluR5 (Homo sapiens, UniProt P41594).
T1 construct: expressed in transfected cells; hygromycin and geneticin selection
T1 sequence (P41594 21-1212): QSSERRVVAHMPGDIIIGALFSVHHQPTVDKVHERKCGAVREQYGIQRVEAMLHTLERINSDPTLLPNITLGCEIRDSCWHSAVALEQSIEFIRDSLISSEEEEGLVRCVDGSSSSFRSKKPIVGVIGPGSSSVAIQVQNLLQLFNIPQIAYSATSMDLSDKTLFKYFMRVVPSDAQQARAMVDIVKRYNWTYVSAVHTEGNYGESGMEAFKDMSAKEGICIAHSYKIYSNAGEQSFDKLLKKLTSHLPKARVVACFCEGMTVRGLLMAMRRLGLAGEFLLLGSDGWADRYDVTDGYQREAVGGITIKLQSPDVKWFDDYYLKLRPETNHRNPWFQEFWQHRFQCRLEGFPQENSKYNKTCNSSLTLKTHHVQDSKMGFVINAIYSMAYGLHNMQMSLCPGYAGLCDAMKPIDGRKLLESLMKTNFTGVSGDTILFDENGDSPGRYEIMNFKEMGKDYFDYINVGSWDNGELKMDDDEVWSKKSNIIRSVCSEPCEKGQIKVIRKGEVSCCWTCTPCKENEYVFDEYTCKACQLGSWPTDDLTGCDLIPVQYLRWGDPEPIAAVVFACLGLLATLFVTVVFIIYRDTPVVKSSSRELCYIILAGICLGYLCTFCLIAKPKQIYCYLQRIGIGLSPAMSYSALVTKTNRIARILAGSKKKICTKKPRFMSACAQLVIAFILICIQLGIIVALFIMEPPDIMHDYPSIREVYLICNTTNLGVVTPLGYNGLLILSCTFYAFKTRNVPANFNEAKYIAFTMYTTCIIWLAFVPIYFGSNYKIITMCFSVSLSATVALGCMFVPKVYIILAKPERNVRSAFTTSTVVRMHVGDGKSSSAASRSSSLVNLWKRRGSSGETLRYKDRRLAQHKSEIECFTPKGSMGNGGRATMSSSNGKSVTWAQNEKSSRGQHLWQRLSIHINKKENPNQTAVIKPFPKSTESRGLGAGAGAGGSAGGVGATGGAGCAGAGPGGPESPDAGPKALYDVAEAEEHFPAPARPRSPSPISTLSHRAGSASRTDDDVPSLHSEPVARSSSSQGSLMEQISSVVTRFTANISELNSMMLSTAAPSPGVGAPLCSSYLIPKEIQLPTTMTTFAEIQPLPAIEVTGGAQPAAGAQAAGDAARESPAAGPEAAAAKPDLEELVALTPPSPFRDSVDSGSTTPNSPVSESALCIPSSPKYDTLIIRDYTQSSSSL
The experiment in a line: positive modulation of mGluR5, calcium based FLIPR assay. The note with it: HEK 293 cell line expressing human recombinant mGluR5; Ca2+ peak height after glutamate at approximately 5% basal stimulation; nonlinear regression. Put shortly:
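HEK293 cells with tetracycline-free induction, Calcium-4 dye-loaded in Ringer pH 7.4. Compound added 5 min before glutamate at ~5% of maximal effect, 1% DMSO. EC50 from peak Ca2+ fluorescence, normalized to basal glutamate (100%) and 10 μM CDPPB (200%), via nonlinear regression.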
In general, EC50 refers to the midpoint of the concentration-response curve. Turning to `COc1cccc(C(=O)N2[C@H](C)CN(C(=O)c3ncn(-c4cccc(C)c4)n3)C[C@@H]2C)n1` [Example 263, (2R*,6S*)-1-[(6-Methoxypyridin-2-yl)carbonyl]-2,6-dimethyl-4-{[1-(3-methylphenyl)-1H-[1,2,4]-triazol-3-yl]carbonyl}piperazine], the EC50 came out at 251 nM.

On to `Cc1cc(C(=O)N2CCN(C(=O)c3ncn(-c4cccc(F)c4)n3)C(C)(C)C2)oc1C` [Example 174, [4-(4,5-Dimethyl-furan-2-carbonyl)-2,2-dimethyl-piperazin-1-yl]-[1-(3-fluoro-phenyl)-1H-[1,2,4]triazol-3-yl]-methanone], for which the EC50 is 221 nM.

As for `COc1nc(C(=O)N2CCN(C(=O)c3ncn(-c4ccc(C)c(F)c4)n3)C(C)(C)C2)cc2ccccc12` [Example 158], the concentration giving a half-maximal response (EC50) is 441 nM.

`Cc1cc2cc(C(=O)N3CCN(C(=O)c4ncn(-c5cccc(Cl)c5)n4)C(C)(C)C3)ccc2[nH]1` [Example 80]: the EC50 was 139 nM.

On to `CC(=O)c1cccc(C(=O)N2CCN(C(=O)c3ncn(-c4cccc(Cl)c4)n3)C(C)(C)C2)n1` [Example 52], for which the half-maximal effective concentration (EC50) was determined as 63 nM.

On to `CC1(C)CN(C(=O)c2cccc(-c3cnco3)c2)CCN1C(=O)c1ncn(-c2cccc(Cl)c2)n1` [Example 28], for which the 50% effective concentration (EC50) is 99 nM.

`COc1cccc(-c2cccc(C(=O)N3CCN(C(=O)c4ncn(-c5cccc(Cl)c5)n4)C(C)(C)C3)c2)c1` [Example 69]: the 50% effective concentration (EC50) turned out to be 53 nM.

With `Cc1ccc(Cl)cc1C(=O)N1CCN(C(=O)c2ncn(-c3cccc(Cl)c3)n2)C(C)(C)C1` [Example 57], the EC50 is 120 nM.

As for `COc1cccc(C(=O)N2CCN(C(=O)c3ncn(-c4cccc(F)c4)n3)CC2C)n1` (centres unmarked) [Example 246], the EC50 was 230 nM.

For the molecule `COc1cccc(C(=O)N2CCN(C(=O)c3ncn(-c4cccc(Cl)c4)n3)C(C)(C)C2)c1` [Example 43], the EC50 is 80 nM.

Turning to `CC1(C)CN(C(=O)c2csc(-c3ccccc3)n2)CCN1C(=O)c1ncn(-c2cccc(Cl)c2)n1` [Example 54], the EC50 stood at 201 nM.

As for `CC1(C)CN(C(=O)c2cccc(C3CCCC3)c2)CCN1C(=O)c1ncn(-c2ccccc2)n1` [Example 144], the 50% effective concentration (EC50) is 23 nM.

Take `CC1CN(C(=O)c2cc3c(Cl)cccc3s2)CCN1C(=O)c1ncn(-c2ccccc2)n1` (centres unmarked) [Example 293]: the 50% effective concentration (EC50) stood at 361 nM.

In the case of `CC(C)COc1cccc(C(=O)N2CCN(C(=O)c3ncn(-c4cccc(Cl)c4)n3)CC2C)c1` (centres unmarked) [Example 216], the half-maximal effective concentration (EC50) was 612 nM.

`Cc1cccc(-n2cnc(C(=O)N3CCN(C(=O)c4oc5ccc(F)cc5c4C)C(C)C3)n2)c1` (centres unmarked) [Example 236]: the EC50 was 1620 nM.

As to `CCc1ccc(C(=O)N2CCN(C(=O)c3ncn(-c4cccc(Cl)c4)n3)C(C)(C)C2)o1` [Example 60], the concentration for a half-maximal effect (EC50) was 69 nM.

On to `Cc1c(C(=O)N2CCN(C(=O)c3ncn(-c4cccc(F)c4)n3)C(C)(C)C2)n(C)c2ccccc12` [Example 6], for which the half-maximal effective concentration (EC50) came to 197 nM.

For the molecule `CC1(C)CN(C(=O)c2ccccc2)CCN1C(=O)c1ncn(-c2ccccc2)n1` [Example 112], the concentration for a half-maximal effect (EC50) was found to be 770 nM.

Consider `CC1(C)CN(C(=O)c2cc(Cl)c3c(c2)OCCO3)CCN1C(=O)c1ncn(-c2cccc(Cl)c2)n1` [Example 19], for which the EC50 was 51 nM.

Turning to `Cc1c(C(=O)N2CCN(C(=O)c3ncn(-c4ccccc4)n3)C(C)(C)C2)oc2ccc(F)cc12` [Example 108], the EC50 turned out to be 112 nM.

`Cc1c(C(=O)N2CCN(C(=O)c3ncn(-c4ccccc4)n3)C(C)C2)oc2ccc(F)cc12` (centres unmarked) [Example 294]: the half-maximal effective concentration (EC50) was 1080 nM.

For `COc1cccc(C(=O)N2CCN(C(=O)c3ncn(-c4ccc(F)c(C)c4)n3)C(C)(C)C2)n1` [Example 161], the EC50 was found to be 316 nM.

Regarding `Cc1cccc(-n2cnc(C(=O)N3CCN(C(=O)c4c(C)oc5ccccc45)C(C)C3)n2)c1` (centres unmarked) [Example 238], the EC50 worked out at 317 nM.

As to `CC1(C)CN(C(=O)c2cccc(Cl)c2)CCN1C(=O)c1ncn(-c2cccc(F)c2)n1` [Example 190], the EC50 was 57 nM.

With `Cn1ccc2cc(C(=O)N3CCN(C(=O)c4ncn(-c5cccc(Cl)c5)n4)C(C)(C)C3)ccc21` [Example 82], the EC50 was found to be 120 nM.

For `COc1cccc(C(=O)N2CCN(C(=O)c3nnn(-c4cccc(C)c4)n3)C(C)(C)C2)n1` [Example 198], the 50% effective concentration (EC50) amounted to 123 nM.

Turning to `CC1(C)CN(C(=O)c2cccc(Cl)c2)CCN1C(=O)c1ncn(-c2ccccc2F)n1` [Example 194], the concentration for a half-maximal effect (EC50) was found to be 491 nM.

Turning to `Cc1oc2ccccc2c1C(=O)N1CCN(C(=O)c2ncn(-c3ccccc3)n2)CC1C` (centres unmarked) [Example 240], the half-maximal effective concentration (EC50) was 350 nM.

With `CC1(C)CN(C(=O)c2cccc(-c3ccncc3)n2)CCN1C(=O)c1ncn(-c2cccc(Cl)c2)n1` [Example 86], the half-maximal effective concentration (EC50) was 164 nM.

Consider `COc1cc(C(=O)N2CCN(C(=O)c3ncn(-c4cccc(Cl)c4)n3)C(C)(C)C2)ccc1C` [Example 46], for which the EC50 stood at 88 nM.

Consider `Cc1ccc(Cl)cc1C(=O)N1CCN(C(=O)c2ncn(-c3ccccc3)n2)C(C)(C)C1` [Example 154], for which the EC50 amounted to 157 nM.

Regarding `CC1(C)CN(C(=O)c2cccc(C(F)(F)F)n2)CCN1C(=O)c1ncn(-c2ccccc2)n1` [Example 101], the EC50 is 52 nM.

For `CC1(C)CN(C(=O)c2cc(Cl)c3c(c2)OCCO3)CCN1C(=O)c1ncn(-c2cccc(F)c2)n1` [Example 3], the EC50 is 86 nM.

In the case of `CCC[C@H]1CN(C(=O)c2ncn(-c3cccc(F)c3)n2)CCN1C(=O)c1cc(Br)c(Br)o1` [Example 262], the EC50 is 193 nM.

As to `Cc1ccc(-n2cnc(C(=O)N3CCN(C(=O)c4cc(Cl)c5c(c4)OCCO5)CC3(C)C)n2)cc1F` [Example 157, [4-(8-Chloro-2,3-dihydro-benzo[1,4]dioxine-6-carbonyl)-2,2-dimethyl-piperazin-1-yl]-[1-(3-fluoro-4-methyl-phenyl)-1H-[1,2,4]triazol-3-yl]-methanone], the EC50 is 364 nM.

With `Cc1ccc2oc(C(=O)N3CCN(C(=O)c4ncn(-c5cccc(Cl)c5)n4)C(C)C3)c(C)c2c1` (centres unmarked) [Example 281], the EC50 was determined as 1500 nM.

Regarding `CCC1CN(C(=O)c2ncn(-c3cccc(F)c3)n2)CCN1C(=O)c1cc(Br)c(Br)o1` (centres unmarked) [Example 260], the 50% effective concentration (EC50) is 153 nM.

On to `Cc1cc(-n2cnc(C(=O)N3CCN(C(=O)c4cc(Cl)c5c(c4)OCCO5)CC3(C)C)n2)ccc1F` [Example 162], for which the EC50 turned out to be 475 nM.

Regarding `CC1CN(C(=O)c2cc3ccccc3o2)CCN1C(=O)c1ncn(-c2cccc(Cl)c2)n1` (centres unmarked) [Example 267], the EC50 was determined as 558 nM.

`COc1cc(OC)cc(C(=O)N2CCN(C(=O)c3ncn(-c4cccc(Cl)c4)n3)CC2C)c1` (centres unmarked) [Example 224]: the EC50 stood at 369 nM.

On to `Cc1cccc(-n2cnc(C(=O)N3CCN(C(=O)c4cc(Cl)c5c(c4)OCCO5)CC3C)n2)c1` (centres unmarked) [Example 289], for which the EC50 stood at 487 nM.

As for `CC1(C)CN(C(=O)c2csc(C3CC3)n2)CCN1C(=O)c1ncn(-c2ccccc2)n1` [Example 141], the 50% effective concentration (EC50) worked out at 487 nM.

Consider `COc1ccnc(C(=O)N2CCN(C(=O)c3ncn(-c4cccc(Cl)c4)n3)C(C)(C)C2)c1` [Example 40], for which the half-maximal effective concentration (EC50) came out at 852 nM.

`Cc1cccc(-n2cnc(C(=O)N3C[C@@H](C)N(C(=O)c4oc5ccc(Cl)cc5c4C)[C@@H](C)C3)n2)c1` [Example 264]: the EC50 was determined as 891 nM.

As for `O=C(c1cc(Br)c(Br)o1)N1CCN(C(=O)c2ncn(-c3cccc(F)c3)n2)C2(CCC2)C1` [Example 306], the EC50 is 445 nM.

As to `Cc1cccc(-n2cnc(C(=O)N3CCN(C(=O)c4cc(Cl)c5c(c4)OCCO5)C(C)C3)n2)c1` (centres unmarked) [Example 239], the EC50 is 326 nM.

Consider `CC1(C)CN(C(=O)c2cccc(Cl)c2)CCN1C(=O)c1nnn(-c2cccc(F)c2)n1` [Example 192], for which the EC50 was determined as 159 nM.

For `COc1cccc(C(=O)N2CCN(C(=O)c3ncn(-c4cccc(C)c4)n3)CC2C)n1` (centres unmarked) [Example 244], the concentration for a half-maximal effect (EC50) stood at 216 nM.

`Cc1ccc2oc(C(=O)N3CCN(C(=O)c4ncn(-c5cccc(Cl)c5)n4)C(C)(C)C3)c(C)c2c1` [Example 50]: the EC50 was found to be 294 nM.

As for `CC1(C)CN(C(=O)c2cccc(C3CCCC3)n2)CCN1C(=O)c1ncn(-c2cccc(Cl)c2)n1` [Example 177, [1-(3-Chloro-phenyl)-1H-[1,2,4]-triazol-3-yl]-[4-(6-cyclopentyl-pyridine-2-carbonyl]-2,2-dimethyl-piperazin-1-yl]-methanone], the EC50 was determined as 37 nM.

Turning to `COc1cc(Cl)cc(C(=O)N2CCN(C(=O)c3nnn(-c4cccc(Cl)c4)n3)C(C)(C)C2)n1` [Example 172], the EC50 was found to be 26 nM.

Consider `O=C(c1cc(Br)c(Br)o1)N1CCN(C(=O)c2ncn(-c3cccc(F)c3)n2)C2(CC2)C1` [Example 305], for which the EC50 turned out to be 503 nM.

Regarding `CC1CN(C(=O)c2cc(Br)c(Br)o2)CCN1C(=O)c1ncn(-c2cccc(Cl)c2)n1` (centres unmarked) [Example 266], the EC50 was found to be 538 nM.

For `CC1CN(C(=O)c2ncn(-c3cccc(Cl)c3)n2)CCN1C(=O)c1cccc2c1OCO2` (centres unmarked) [Example 220], the half-maximal effective concentration (EC50) is 799 nM.

As to `CC1(C)CN(C(=O)c2cc(Cl)c3c(c2)OCCO3)CCN1C(=O)c1nnn(-c2ccccc2)n1` [Example 164, [4-(8-Chloro-2,3-dihydro-benzol-[1,4]dioxine-6-carbonyl)-2,2-dimethyl-piperazin-1-yl]-(2-phenyl-2H-tetrazol-5-yl)-methanone], the concentration giving a half-maximal response (EC50) came out at 19 nM.

As to `COc1ccc2oc(C)c(C(=O)N3CCN(C(=O)c4ncn(-c5cccc(C)c5)n4)CC3C)c2c1` (centres unmarked) [Example 237], the concentration for a half-maximal effect (EC50) is 174 nM.

For `Cc1c(C(=O)N2CCN(C(=O)c3ncn(-c4cccc(Cl)c4)n3)C[C@@H]2C)oc2ccc(F)cc12` [Example 253], the EC50 came to 336 nM.

As to `CC1(C)CN(C(=O)c2cccc(-c3nccs3)c2)CCN1C(=O)c1ncn(-c2cccc(Cl)c2)n1` [Example 26], the EC50 was 72 nM.

With `CC(C#N)c1cccc(C(=O)N2CCN(C(=O)c3ncn(-c4cccc(Cl)c4)n3)C(C)(C)C2)c1` (centres unmarked) [Example 75], the EC50 was found to be 419 nM.

Source of the values: patent US8883789B2, “Piperazine derivatives and their use as positive allosteric modulators of mGluR5 receptors” (Boehringer Ingelheim International GmbH, priority 2011, dated 2014).
